Results published in patent US8618082B2, “Lupeol anti-tumor agent and uses thereof” (Wisconsin Alumni Research Foundation, priority 2004, dated 2013).
“Also recorded” adds a separate entry of the source.

Key:
CD-1 mouse skin [1] = test: TPA-induced epidermal hyperplasia (hematoxylin and eosin histology); format: in vivo
Experimental: FIG. 2. Inhibitory effect of Lupeol on TPA-induced hyperplasia in CD-1 mice: 24 and 48 h after treatment, the animals were sacrificed; skin biopsies were processed for hematoxylin and eosin staining. Representative pictures are shown.
The effect of topical application of Lupeol on TPA-mediated induction of epidermal hyperplasia was then assessed.
The animals were shaved on the dorsal side of the skin, divided into four groups and treated topically on the shaved area with either 0.4 ml vehicle (acetone), or TPA (3.2 nmol/0.4 ml acetone/animal, v/v), or Lupeol (1 or 2 mg/0.2 ml acetone/animal, w/v) followed 30 min later with TPA (3.2 nmol/0.2 ml acetone/animal). Animals were sacrificed at different times point i.e. 6, 12, 24 and 48 h post TPA treatment. The epidermis was separated from the whole skin and homogenized in 0.1 M Tris-HCl buffer (pH 7.2) using a Polytron tissue homogenizer (Brinkmann Instruments, Westbury, N.Y., USA) at 100,000×g supernatant, and microsomal fractions were prepared as described earlier (Katiyar and Mukhtar, 1997). […]
To assess the inhibitory effect of pre-application of Lupeol on TPA-induced edema, 1 cm-diameter punches of skin from vehicle-, Lupeol-, TPA- or Lupeol- and TPA-treated mice were removed, made free of fat pads, and weighed immediately. After drying for 24 h at 50° C., the skin punches were reweighed, and the loss of water content was determined. […]

CD-1 mouse skin [2] = format: in vivo
Experimental: FIG. 8. Two stage carcinogenesis tumor data in CD-1 mice: Inhibitory effect of Lupeol on DMBA-initiated and TPA-promoted tumor formation in CD-1 mice: In each group, 20 animals were used. Tumorigenesis was initiated in the animals by a single topical application of 200 nmol DMBA in 0.2 ml vehicle on the dorsal shaved skin, and 1 week later, the tumor growth was promoted with twice-weekly applications of 3.2 nmol TPA in 0.2 ml vehicle. To assess its anti-skin tumor-promoting effect, Lupeol at a dose of 2 mg/animal was applied topically 30 min prior to each TPA application in different groups. Treatment with TPA alone or Lupeol plus TPA was repeated twice weekly up to the termination of the experiments at 28 weeks. Animals in all the groups were watched for any apparent signs of toxicity, such as weight loss or mortality during the entire period of study. Skin tumor formation was recorded weekly, and tumors larger than 1 mm in diameter were included in the cumulative number only if they persisted for 2 weeks or more. The tumor data is represented as the percentage of mice with tumors (a), the number of tumors per mouse (b) and the number of tumors per group (c). The data was analyzed by Wilcoxon rank sum test and χ^2 analysis.
Female CD-1 mice were used in DMBA- and TPA-induced, two-stage skin tumorigenesis protocol as described earlier (Katiyar et al., 1996). The dorsal side of the skin was shaved using electric clippers, and the mice with hair cycles in the resting phase were used for tumor studies. In each group, 20 animals were used. Tumorigenesis was initiated in the animals by a single topical application of 200 nmol DMBA in 0.2 ml vehicle on the dorsal shaved skin, and 1 week later, the tumor growth was promoted with twice-weekly applications of 3.2 nmol TPA in 0.2 ml vehicle. […] Treatment with TPA alone or Lupeol plus TPA was repeated twice weekly up to the termination of the experiments at 28 weeks. Animals in all the groups were watched for any apparent signs of toxicity, such as weight loss or mortality during the entire period of study. Skin tumor formation was recorded weekly, and tumors larger than 1 mm in diameter were included in the cumulative number only if they persisted for 2 weeks or more.
A two-tailed Student's t test was used to assess the statistical significance between the TPA treated and Lupeol+TPA treated groups. A p value<0.05 was considered statistically significant. In tumorigenesis experiments, the statistical significance of difference between TPA and Lupeol+TPA groups was evaluated by the Wilcoxon rank sum test and χ^2 analysis.

[3] = tested on: androgen-sensitive prostatic cancer cells (LNCaP); test: Viability of LNCaP cells, MTT assay; format: cell-based, human; details: for cell death of LNCaP cells: 48 hours
Experimental: FIG. 10 depicts effect of Lupeol on viability of androgen-sensitive prostatic cancer cells (LNCaP). Cells were treated with specified concentrations of Lupeol for 48 h, and cell viability was determined by MTT assay. The values are represented as the percent viable cells where vehicle-treated cells were regarded as 100% viable. Data represents mean value of percent viable cells±S.E of three independent experiments.

LNCaP cells = test: LNCaP viability with anti-Fas mAb alone or combined with Lupeol, MTT assay; format: cell-based, human
Experimental: FIG. 15 depicts effect of Lupeol treatment in combination with anti-Fas mAb on the growth of LNCaP cells and on the expression of Fas receptor in LNCaP and PrEC cells: (a) Cells were treated with specified concentrations anti-Fas mAb for 48 h and cell viability was determined by MTT assay. The values are represented as the percent viable cells where vehicle-treated cells were regarded as 100% viable. Data represents mean value of percent viable cells±S.E of three independent experiments. V represents control and vehicle (DMSO) treated cells respectively. (b). Cells were treated with specified concentrations of Lupeol alone, anti-Fas mAb or with combination (Lupeol+anti-Fas mAb) for 48 h and cell viability was determined by MTT assay. “a” and “b” represent pre-treatment and co-treatment of cells with anti-Fas mAb respectively. The values are represented as the percent viable cells where vehicle-treated cells were regarded as 100% viable. Data represents mean value of percent viable cells±S.E of three independent experiments.

AsPC-1 cells [4] = test: Viability of AsPC-1 cells, MTT assay; format: cell-based; details: Lupeol for 24-72 hours
Experimental: FIG. 20 depicts effect of Lupeol on viability of AsPC-1 cells. The cells were treated with specified concentrations of Lupeol for 24, 48 and 72 h, and cell viability was determined by MTT assay.

AsPC-1 cells [5] = test: Apoptosis in AsPC-1 cells by fluorescence microscopy and flow cytometry; format: cell-based; details: flow cytometry and confocal microscopy
Description: FIG. 21 depicts Lupeol induced apoptosis in AsPC-1 cells as assessed by fluorescence microscopy (Upper Panel) and by flow cytometry (Bottom Panel). Upper panel of FIG. 21 contains the representative micrographs of AsPC-1 cells undergoing apoptosis induced by treatment with Lupeol as assessed by fluorescence microscopy (Upper panel).

[6] = Lupeol 2 mg/animal, 28 weeks, vs non-Lupeol treated group

SMILES: C=C(C)[C@@H]1CC[C@]2(C)CC[C@]3(C)[C@H](CC[C@@H]4[C@@]5(C)CC[C@H](O)C(C)(C)[C@@H]5CC[C@]43C)[C@@H]12 [Lupeol, Lup-20(29)-en-3β-ol]
- epidermal hyperplasia after Lupeol alone (CD-1 mouse skin [1]; Lupeol alone): did not induce any epidermal hyperplasia
- induction of epidermal hyperplasia by TPA (CD-1 mouse skin [1]; topical Lupeol prior to TPA, 24 and 48 h): resulted in inhibition in the induction of epidermal hyperplasia
- percentage of mice with skin tumors (CD-1 mouse skin [2]; Lupeol 2 mg/animal topical 30 min prior to each TPA, 28 weeks, non-Lupeol group 100%): 53%
- total number of tumors per group (CD-1 mouse skin [2]; Lupeol 2 mg/animal, 28 weeks, 20 animals, non-Lupeol group 125): 33 tumors
- inhibition of number of tumors per mouse (CD-1 mouse skin [2]; [6]): 74%
- inhibition of total number of tumors (CD-1 mouse skin [2]; [6]): 74%
- number of tumors per mouse (CD-1 mouse skin [2]; Lupeol 2 mg/animal, 28 weeks, non-Lupeol group 6.25): 1.65 tumors per mouse
- latency period of tumor formation (CD-1 mouse skin [2]; Lupeol 2 mg/animal, p<0.05, χ2 test): significantly increased
- body weight gain (CD-1 mouse skin [2]; Lupeol treatment for 28 weeks, data not shown): did not significantly affect
- signs of toxicity (CD-1 mouse skin [2]; mouse, in vivo): none of the treated mice exhibited any signs of toxicity
- cell death of LNCaP cells ([3]; 40-60 μM Lupeol): 75-90%
- cell viability of LNCaP cells ([3]; Lupeol 5-30 μM, 48 and 72 h, time and dose dependent): significant inhibition of cell viability
- cell death of LNCaP cells ([3]; Lupeol up to 30 μM): 70%
- combination effect of Lupeol with Fas-agonist (anti-Fas mAb) on cell death (LNCaP cells; LNCaP cells, vs additive effect of the two alone): synergistic effect; also recorded: significant synergistic manner
- cell death of LNCaP cells (LNCaP cells; anti-Fas mAb pretreated LNCaP cells treated with Lupeol (30 μg)): 95-98%
- cell death of ASPC-1 cells (AsPC-1 cells [4]): highly significant dose dependent cell death
- induction of apoptosis in ASPC-1 cells (AsPC-1 cells [5]): inducing apoptosis
